Results taken from PMC4503722, “Novel Phenotypic Outcomes Identified for a Public Collection of Approved Drugs from a Publicly Accessible Panel of Assays” (PLoS ONE, 2015).

Tests used:
SNU-C1 = experiment: cells; type: cell-based; details: assay number 30; basal
HeLa cells = experiment: cells; type: cell-based; details: for Hela CellCycMod PI 2N IC50/EC50: assay number 14; for Hela CellCycMod PI 4N IC50/EC50: assay number 16; for Hela CellCycMod PI MI IC50/EC50: assay number 17; for Hela CellCycMod PI Cell Number IC50/EC50: assay number 18; for Hela CellCycMod PI S Phase IC50/EC50: assay number 15
hGSK3b = molecular target: T1, hGSK3b (Homo sapiens, UniProt P49841); experiment: Cerep LANCE kinase assay hGSK3b (S1 assay 34); type: biochemical; details: assay number 34
T1 construct: purchased Cerep (LANCE kinase assay platform, contract assay)
T1 sequence (P49841 whole entry): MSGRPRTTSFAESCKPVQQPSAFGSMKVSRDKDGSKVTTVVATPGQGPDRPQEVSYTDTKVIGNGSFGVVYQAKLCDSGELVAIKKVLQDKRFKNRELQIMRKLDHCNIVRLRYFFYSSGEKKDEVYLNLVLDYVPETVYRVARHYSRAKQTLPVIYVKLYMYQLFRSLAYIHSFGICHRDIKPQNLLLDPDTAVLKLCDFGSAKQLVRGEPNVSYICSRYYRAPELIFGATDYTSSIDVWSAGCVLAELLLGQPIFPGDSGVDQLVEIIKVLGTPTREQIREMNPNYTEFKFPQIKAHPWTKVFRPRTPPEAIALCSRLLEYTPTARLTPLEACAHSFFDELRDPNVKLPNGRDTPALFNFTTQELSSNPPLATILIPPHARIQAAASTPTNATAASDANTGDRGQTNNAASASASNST

Colo320 = experiment: cells; type: cell-based; details: assay number 27; basal
hFLT3 = molecular target: T2, hFLT3 (Homo sapiens, UniProt P36888); experiment: Cerep LANCE kinase assay hFLT3 (S1 assay 35); type: biochemical; details: assay number 35
T2 construct: purchased Cerep (LANCE kinase assay platform, contract assay)
T2 sequence (P36888 27-993): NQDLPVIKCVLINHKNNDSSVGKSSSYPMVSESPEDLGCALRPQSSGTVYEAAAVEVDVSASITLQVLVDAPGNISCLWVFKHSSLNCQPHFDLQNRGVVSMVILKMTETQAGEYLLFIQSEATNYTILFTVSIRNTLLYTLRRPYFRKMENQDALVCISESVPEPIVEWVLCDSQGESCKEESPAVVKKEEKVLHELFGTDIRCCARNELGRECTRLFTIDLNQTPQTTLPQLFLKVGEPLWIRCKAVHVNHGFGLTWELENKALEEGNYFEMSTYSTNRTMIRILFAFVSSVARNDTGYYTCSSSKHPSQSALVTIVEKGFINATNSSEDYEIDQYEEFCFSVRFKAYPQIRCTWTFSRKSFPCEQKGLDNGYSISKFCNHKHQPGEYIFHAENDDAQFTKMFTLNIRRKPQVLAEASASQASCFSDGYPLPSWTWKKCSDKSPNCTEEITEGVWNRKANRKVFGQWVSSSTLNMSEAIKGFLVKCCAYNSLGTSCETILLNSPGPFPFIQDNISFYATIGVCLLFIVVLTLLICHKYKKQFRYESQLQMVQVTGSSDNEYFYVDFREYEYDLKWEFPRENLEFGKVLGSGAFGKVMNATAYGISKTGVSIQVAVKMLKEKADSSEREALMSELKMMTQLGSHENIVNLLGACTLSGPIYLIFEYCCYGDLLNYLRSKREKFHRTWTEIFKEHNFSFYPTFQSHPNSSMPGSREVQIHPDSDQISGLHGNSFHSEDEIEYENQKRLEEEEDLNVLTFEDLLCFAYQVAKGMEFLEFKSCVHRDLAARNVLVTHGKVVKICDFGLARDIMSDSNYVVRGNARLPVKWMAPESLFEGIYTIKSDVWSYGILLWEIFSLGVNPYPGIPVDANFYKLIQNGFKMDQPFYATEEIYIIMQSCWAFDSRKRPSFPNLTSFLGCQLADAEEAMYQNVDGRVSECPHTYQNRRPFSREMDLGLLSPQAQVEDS

[1] = test system: alkaline phosphatase (ALP) activity in C2C12 cells; type: cell-based; details: assay number 6; concentration response
[2] = test system: nuclear β-catenin in C2C12 cells; experiment: cells; type: cell-based; details: assay number 5; concentration response
hp70S6K1 (RPS6KB1) = molecular target: T3, hp70S6K1 (RPS6KB1) (Homo sapiens, UniProt P23443); experiment: Cerep LANCE kinase assay hp70S6K1 (S1 assay 31); type: biochemical; details: assay number 31
T3 construct: purchased Cerep (LANCE kinase assay platform, contract assay)
T3 sequence (P23443 whole entry): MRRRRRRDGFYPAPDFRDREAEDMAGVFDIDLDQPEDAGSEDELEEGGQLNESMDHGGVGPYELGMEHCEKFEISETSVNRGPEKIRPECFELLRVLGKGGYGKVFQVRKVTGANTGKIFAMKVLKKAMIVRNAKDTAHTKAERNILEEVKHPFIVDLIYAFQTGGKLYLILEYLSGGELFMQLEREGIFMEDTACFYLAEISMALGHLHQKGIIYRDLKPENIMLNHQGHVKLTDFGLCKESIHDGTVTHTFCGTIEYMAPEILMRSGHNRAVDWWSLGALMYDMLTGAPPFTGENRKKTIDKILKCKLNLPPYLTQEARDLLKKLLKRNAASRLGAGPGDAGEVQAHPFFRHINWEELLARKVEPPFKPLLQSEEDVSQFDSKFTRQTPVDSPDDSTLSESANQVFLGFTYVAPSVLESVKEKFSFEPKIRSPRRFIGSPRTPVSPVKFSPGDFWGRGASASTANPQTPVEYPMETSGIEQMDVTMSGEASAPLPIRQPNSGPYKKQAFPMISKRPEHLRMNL

[3] = test system: endothelial tube formation in co-cultures of ECFCs and ADSCs treated with VEGF; experiment: cells; type: cell-based, human
RKO = experiment: cells; type: cell-based; details: assay number 29; basal
hJAK2 = molecular target: T4, hJAK2 (Homo sapiens, UniProt O60674); experiment: Cerep LANCE kinase assay hJAK2 (S1 assay 33); type: biochemical; details: assay number 33
T4 construct: purchased Cerep (LANCE kinase assay platform, contract assay)
T4 sequence (O60674 whole entry): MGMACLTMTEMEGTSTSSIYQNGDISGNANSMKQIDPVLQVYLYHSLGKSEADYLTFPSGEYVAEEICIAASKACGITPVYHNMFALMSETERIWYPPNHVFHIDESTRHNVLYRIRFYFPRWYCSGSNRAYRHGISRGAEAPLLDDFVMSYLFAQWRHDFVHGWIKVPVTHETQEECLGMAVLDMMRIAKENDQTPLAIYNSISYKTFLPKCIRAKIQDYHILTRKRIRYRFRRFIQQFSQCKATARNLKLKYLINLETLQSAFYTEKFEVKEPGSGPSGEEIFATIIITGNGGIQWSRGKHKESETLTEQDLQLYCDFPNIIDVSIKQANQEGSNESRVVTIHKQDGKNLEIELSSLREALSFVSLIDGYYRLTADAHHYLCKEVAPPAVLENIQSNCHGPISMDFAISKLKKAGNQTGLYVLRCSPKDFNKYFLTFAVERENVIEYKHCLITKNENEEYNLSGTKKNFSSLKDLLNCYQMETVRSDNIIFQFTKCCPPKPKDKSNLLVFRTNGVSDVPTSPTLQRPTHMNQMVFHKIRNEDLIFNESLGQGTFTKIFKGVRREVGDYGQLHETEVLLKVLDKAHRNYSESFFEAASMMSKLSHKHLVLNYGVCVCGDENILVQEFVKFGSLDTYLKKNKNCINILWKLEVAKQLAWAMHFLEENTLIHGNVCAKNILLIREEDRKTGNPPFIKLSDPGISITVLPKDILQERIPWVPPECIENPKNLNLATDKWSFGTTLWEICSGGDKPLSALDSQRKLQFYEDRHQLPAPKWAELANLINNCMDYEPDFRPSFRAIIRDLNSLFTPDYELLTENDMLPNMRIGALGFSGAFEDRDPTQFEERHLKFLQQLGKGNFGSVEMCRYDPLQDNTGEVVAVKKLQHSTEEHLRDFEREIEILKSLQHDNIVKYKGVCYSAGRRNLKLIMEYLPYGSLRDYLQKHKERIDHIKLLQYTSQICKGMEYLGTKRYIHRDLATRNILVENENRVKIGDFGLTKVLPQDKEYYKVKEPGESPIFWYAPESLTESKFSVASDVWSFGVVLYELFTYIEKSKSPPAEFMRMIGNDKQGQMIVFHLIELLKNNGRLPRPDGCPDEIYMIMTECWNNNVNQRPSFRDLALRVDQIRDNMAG

hKDR = molecular target: T5, hKDR (Homo sapiens, UniProt P35968); experiment: Cerep LANCE kinase assay hKDR (S1 assay 32); type: biochemical; details: assay number 32
T5 construct: purchased Cerep (LANCE kinase assay platform, contract assay)
T5 sequence (P35968 20-1356): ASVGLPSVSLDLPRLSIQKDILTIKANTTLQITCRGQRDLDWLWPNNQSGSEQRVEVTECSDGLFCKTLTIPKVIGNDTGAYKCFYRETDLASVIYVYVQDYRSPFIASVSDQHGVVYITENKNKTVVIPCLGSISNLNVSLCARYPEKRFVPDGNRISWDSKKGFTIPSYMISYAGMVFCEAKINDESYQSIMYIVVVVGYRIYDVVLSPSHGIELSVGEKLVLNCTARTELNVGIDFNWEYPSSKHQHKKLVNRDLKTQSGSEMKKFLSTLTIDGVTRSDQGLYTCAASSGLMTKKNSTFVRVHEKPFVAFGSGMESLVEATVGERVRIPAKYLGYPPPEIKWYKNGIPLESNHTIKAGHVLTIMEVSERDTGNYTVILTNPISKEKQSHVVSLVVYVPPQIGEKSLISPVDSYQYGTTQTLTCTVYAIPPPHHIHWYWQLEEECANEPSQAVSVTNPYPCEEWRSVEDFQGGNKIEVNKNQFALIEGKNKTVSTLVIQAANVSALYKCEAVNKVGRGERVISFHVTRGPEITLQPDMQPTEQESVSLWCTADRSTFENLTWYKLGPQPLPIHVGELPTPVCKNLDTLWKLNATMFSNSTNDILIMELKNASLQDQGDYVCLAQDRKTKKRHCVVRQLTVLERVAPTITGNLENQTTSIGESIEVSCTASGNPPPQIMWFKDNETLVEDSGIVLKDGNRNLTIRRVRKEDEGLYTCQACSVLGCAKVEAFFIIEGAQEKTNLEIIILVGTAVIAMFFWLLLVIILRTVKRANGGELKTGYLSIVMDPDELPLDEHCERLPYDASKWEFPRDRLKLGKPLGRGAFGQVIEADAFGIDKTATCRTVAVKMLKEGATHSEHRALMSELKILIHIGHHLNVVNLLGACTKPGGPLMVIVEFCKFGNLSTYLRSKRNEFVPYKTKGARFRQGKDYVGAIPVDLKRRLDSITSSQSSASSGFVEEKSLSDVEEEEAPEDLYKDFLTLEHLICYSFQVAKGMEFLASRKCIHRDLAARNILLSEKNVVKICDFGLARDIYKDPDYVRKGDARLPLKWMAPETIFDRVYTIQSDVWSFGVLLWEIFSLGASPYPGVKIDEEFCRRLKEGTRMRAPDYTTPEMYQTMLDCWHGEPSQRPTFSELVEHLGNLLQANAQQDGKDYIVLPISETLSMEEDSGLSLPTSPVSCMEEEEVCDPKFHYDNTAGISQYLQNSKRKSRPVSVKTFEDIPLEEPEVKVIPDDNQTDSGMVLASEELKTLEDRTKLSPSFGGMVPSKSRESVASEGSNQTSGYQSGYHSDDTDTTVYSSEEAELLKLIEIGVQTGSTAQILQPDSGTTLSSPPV

SW480 = experiment: cells; type: cell-based; details: assay number 24; basal
DLD-1 = experiment: cells; type: cell-based; details: assay number 23; basal
[4] = test system: ECFC/ADSC co-culture cell nuclei number
[5] = test system: HCT116 cells treated with a GSK3β inhibitor; experiment: cells; type: cell-based; details: assay number 26; GSK3b inhibitor pretreated
HCT116 = experiment: cells; type: cell-based; details: assay number 25; basal
HT-29 = experiment: cells; type: cell-based; details: assay number 28; basal

| Compound | Basal_Viability ATP SNU-C1 IC50/EC50 (SNU-C1) | Hela CellCycMod PI 2N IC50/EC50 (HeLa cells) | Hela CellCycMod PI 4N IC50/EC50 (HeLa cells) | Hela CellCycMod PI MI IC50/EC50 (HeLa cells) | Hela CellCycMod PI Cell Number IC50/EC50 (HeLa cells) | hGSK3b LANCE IC50/EC50 (hGSK3b) | Basal_Viability ATP Colo 320 IC50/EC50 (Colo320) | hFLT3 LANCE IC50/EC50 (hFLT3) | WntCondMedia_Alk Phos C2C12 IC50/EC50 [1] | WntCondMedia_bCatenin C2C12 IC50/EC50 [2] | hp70S6K1 LANCE IC50/EC50 (hp70S6K1 (RPS6KB1)) | VEGF_ADSC\ECFC Angio CD31 TubeArea IC50/EC50 [3] | Basal_Viability ATP RKO IC50/EC50 (RKO) | hJAK2 LANCE IC50/EC50 (hJAK2) | hKDR LANCE IC50/EC50 (hKDR) | Basal_Viability ATP SW480 IC50/EC50 (SW480) | Basal_Viability ATP DLD-1 IC50/EC50 (DLD-1) | VEGF_ADSC\ECFC Angio Hoechst NucArea IC50/EC50 [4] | GSK3b inh pretreated_Viability ATP HCT116 IC50/EC50 [5] | Basal_Viability ATP HCT116 IC50/EC50 (HCT116) | also measured |
| --- | --- | --- | --- | --- | --- | --- | --- | --- | --- | --- | --- | --- | --- | --- | --- | --- | --- | --- | --- | --- | --- |
| Cc1cc(C2CCCCC2)n(O)c(=O)c1.NCCO [NCGC00017112-10] | > 20 µM | > 10 µM | > 10 µM | > 10 µM | 0.5693 µM | > 20 µM | 0.2084 µM | > 20 µM | 1.0476 µM | > 20 µM | > 20 µM | > 10 µM | 0.2329 µM | > 20 µM | > 20 µM | 0.469 µM | 0.316 µM | > 10 µM | 0.3898 µM | 0.6557 µM | Basal_Viability ATP HT-29 IC50/EC50 (HT-29): 7.035 µM |
| O=C1c2c(O)ccc(O)c2C(=O)c2c(NCCNCCO)ccc(NCCNCCO)c21 [NCGC00015693-09] | 1.718 µM | > 10 µM | > 10 µM | > 10 µM | 0.0031 µM | > 20 µM | 7.4079 µM | > 20 µM | 1.509 µM | 0.0303 µM | > 20 µM | 0.0044 µM | 1.0291 µM | > 20 µM | > 20 µM | 1.8306 µM | 1.6038 µM | 0.01274 µM | 0.001 µM | 1.2335 µM | Hela CellCycMod PI S Phase IC50/EC50 (HeLa cells): > 10 µM; Basal_Viability ATP HT-29 IC50/EC50 (HT-29): 7.591 µM |
| Cc1cc(=O)c2c(O)c3c(O)cc(=O)c4c3c3c(cc(O)c1c23)C(C)(C)C=4O [NCGC00160275-03] | 0.3321 µM | > 10 µM | > 10 µM | > 10 µM | 1.0003 µM | 6.9 µM | 0.08199 µM | 1.97 µM | 2.9111 µM | 1.0715 µM | > 20 µM | 0.1005 µM | 0.0754 µM | > 20 µM | > 20 µM | 0.05797 µM | 0.07089 µM | 2.074 µM | 0.05735 µM | 0.07747 µM | Hela CellCycMod PI S Phase IC50/EC50 (HeLa cells): > 10 µM; Basal_Viability ATP HT-29 IC50/EC50 (HT-29): 3.006 µM |
